Measured values reported in US9278915B2, “Agonists of GPR40” (CONNEXIOS LIFE SCIENCES PVT LTD, priority 2010, dated 2016).

molecular target: T1, hGPR40 (Homo sapiens, UniProt O14842); assay: Calcium flux assay to detect GPR40 activation; assay type: cell-based; settings: CHO-K cells stably expressing hGPR40; Fluo-4 NW; read for 4 min at 5 s intervals
T1 construct: expressed in transfected cells
Method in brief: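 CHO-K cells stably expressing hGPR40 were cultured 24 h at 37 °C and loaded with Fluo-4 NW for 30 min at 37 °C plus 30 min at RT. Compounds diluted in HEPES buffer were added, and calcium fluorescence was recorded for 4 min at 5 s intervals.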

T1 sequence (O14842 whole entry): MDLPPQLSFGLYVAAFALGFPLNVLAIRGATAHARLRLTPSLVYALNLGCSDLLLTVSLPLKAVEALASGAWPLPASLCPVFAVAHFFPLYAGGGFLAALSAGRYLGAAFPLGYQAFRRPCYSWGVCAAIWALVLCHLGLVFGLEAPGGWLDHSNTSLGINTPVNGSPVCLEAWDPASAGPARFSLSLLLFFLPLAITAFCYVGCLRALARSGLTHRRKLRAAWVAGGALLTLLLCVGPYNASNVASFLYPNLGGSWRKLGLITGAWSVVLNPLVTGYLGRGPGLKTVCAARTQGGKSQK

EC50 [nM]	Compound
> 100	CO/N=C(\COc1ccc(COc2ccc(/C(CC(=O)O)=N\OCc3ccccc3)cc2)cc1)c1ccccc1 [Compound 122, (3E,3Z)-3-[(Benzyloxy)imino]-3-{4-[(4-{[(2Z)-2-(methoxyimino)-2-phenylethyl]oxy}benzyl)oxy]phenyl}propanoic acid]
> 100	CO/N=C(\COc1ccc(COc2ccc(CCC(=O)O)cc2OC)cc1)c1ccccc1 [Compound 94, 3-{3-Methoxy-4-[(4-{[(2Z)-2-(methoxyimino)-2-phenylethyl]oxy}benzyl)oxy]phenyl}propanoic acid]
> 100	CO/N=C(\COc1ccc(COc2ccc(C(CC(=O)O)C(N)=O)cc2)cc1)c1ccccc1 (stereo not shown) [Compound 93, 4-Amino-3-{4-[(4-{[(2Z)-2-(methoxyimino)-2-phenylethyl]oxy}benzyl)oxy]phenyl}-4-oxobutanoic acid]
10 to 100	CO/N=C(/COc1ccc(COc2ccc(CCC(=O)O)cc2)cc1)c1ccc(C#N)cc1 (racemic) [Compound 28, 3-{4-[(4-{[(2E,2Z)-2-(4-Cyanophenyl)-2-(methoxyimino)ethyl]oxy}benzyl)oxy]phenyl}propanoic acid]
> 100	CO/N=C(\COc1ccc(COc2ccc(C(O)CC(=O)O)cc2)cc1)c1ccccc1 (stereo not shown) [Compound 119, 3-Hydroxy-3-{4-[(4-{[(2Z)-2-(methoxyimino)-2-phenylethyl]oxy}benzyl)oxy]phenyl}propanoic acid]
> 100	CO/N=C(\COc1ccc(COc2ccc(CCC(=O)O)c(OC)c2)cc1)c1ccc(C#N)cc1 [Compound 43, 3-{4-[(4-{[(2Z)-2-(4-Cyanophenyl)-2-(methoxyimino)ethyl]oxy}benzyl)oxy]-2-methoxyphenyl}propanoic acid]
> 100	CO/N=C(\COc1ccc(COc2ccc(C(CC(=O)O)c3c(C)noc3C)cc2)cc1)c1ccccc1 (stereo not shown) [Compound 67, 3-(3,5-Dimethyl-1,2-oxazol-4-yl)-3-{4-[(4-{[(2E,2Z)-2-(methoxyimino)-2-phenylethyl]oxy}benzyl)oxy]phenyl}propanoic acid]
< 10	CO/N=C(/COc1ccc(COc2ccc(C(C#N)CC(=O)O)cc2)cc1)c1ccc(F)cc1 (racemic) [Compound 22, 3-Cyano-3-{4-[(4-{[(2E,2Z)-2-(4-fluorophenyl)-2-(methoxyimino)ethyl]oxy}benzyl)oxy]phenyl}propanoic acid]
> 100	CO/N=C(\COc1ccc(COc2ccc(CCC(=O)O)c(C#N)c2)cc1)c1ccccc1 [Compound 42, 3-{2-Cyano-4-[(4-{[(2E,2Z)-2-(methoxyimino)-2-phenylethyl]oxy}benzyl)oxy]phenyl}propanoic acid]
< 10	CO/N=C(\COc1ccc(COc2ccc(C(C#N)CC(=O)O)cc2)cc1)c1ccccc1 (single isomer, unassigned; (-)) [Compound 75, (−)-3-Cyano-3-{4-[(4-{[(2Z)-2-(methoxyimino)-2-phenylethyl]oxy}benzyl)oxy]phenyl}propanoic acid]
< 10	CO/N=C(/COc1ccc(COc2ccc(C(C#N)CC(=O)O)cc2)c(F)c1)c1ccccc1 (racemic) [Compound 23, 3-Cyano-3-{4-[(2-fluoro-4-{[(2E,2Z)-2-(methoxyimino)-2-phenylethyl]oxy}benzyl)oxy]phenyl}propanoic acid]
> 100	CO/N=C(\COc1ccc(COc2ccc(OCC(=O)O)cc2)cc1)c1ccccc1 [Compound 117, {4-[(4-{[(2Z)-2-(Methoxyimino)-2-phenylethyl]oxy}benzyl)oxy]phenoxy}acetic acid]
< 10	CO/N=C(\COc1ccc(COc2ccc(CCC(=O)O)cc2)cc1)c1ccccc1 [Compound 7, 3-{4-[(4-{[(2Z)-2-(Methoxyimino)-2-phenylethyl]oxy}benzyl)oxy]phenyl}propanoic acid]
> 100	CCOC(=O)CCc1ccc(OCc2ccc(OC/C(=N\OC)c3ccccc3)cc2)cc1OCC(=O)O [Compound 90, {2-(3-Ethoxy-3-oxopropyl)-5-[(4-{[(2E,2Z)-2-(methoxyimino)-2-phenylethyl]oxy}benzyl)oxy]phenoxy}acetic acid]
> 100	CO/N=C(\COc1ccc(COc2ccc(CCC(N)=O)cc2)cc1)c1ccccc1 [Compound 120, 3-{4-[(4-{[(2Z)-2-(Methoxyimino)-2-phenylethyl]oxy}benzyl)oxy]phenyl}propanamide]
< 10	CO/N=C(\COc1ccc(COc2ccc(CCC(=O)O)c(F)c2)cc1)c1ccccc1 [Compound 36, 3-{2-Fluoro-4-[(4-{[(2Z)-2-(methoxyimino)-2-phenylethyl]oxy}benzyl)oxy]phenyl}propanoic acid]
> 100	CO/N=C(\COc1ccc(COc2ccc(CCC(=O)O)c(-c3c(C)noc3C)c2)cc1)c1ccccc1 [Compound 84, 3-{2-(3,5-Dimethyl-1,2-oxazol-4-yl)-4-[(4-{[(2E,2Z)-2-(methoxyimino)-2-phenylethyl]oxy}benzyl)oxy]phenyl}propanoic acid]
< 10	CO/N=C(\COc1ccc(COc2ccc(C3CC3C(=O)O)cc2)cc1)c1ccc(C#N)cc1 (single isomer, unassigned) [Compound 80, Sodium 2-{4-[(4-{[(2Z)-2-(4-cyanophenyl)-2-(methoxyimino)ethyl]oxy}benzyl)oxy]phenyl}cyclopropanecarboxylate]
10 to 100	CO/N=C(/COc1ccc(COc2ccc(C(C#N)CC(=O)O)cc2)cc1F)c1ccccc1 (racemic) [Compound 21, 3-Cyano-3-{4-[(3-fluoro-4-{[(2E,2Z)-2-(methoxyimino)-2-phenylethyl]oxy}benzyl)oxy]phenyl}propanoic acid]

The remaining lines, values behind:

Compound	EC50 [nM]
CO/N=C(\COc1ccc(COc2ccc(/C=C/C(=O)O)c(-c3cc(C)on3)c2)cc1)c1ccccc1 [Compound 97, (2E,2Z)-3-{4-[(4-{[(2Z)-2-(Methoxyimino)-2-phenylethyl]oxy}benzyl)oxy]-2-(5-methyl-1,2-oxazol-3-yl)phenyl}prop-2-enoic acid]	> 100
CCCC(CC(=O)O)c1ccc(OCc2ccc(OC/C(=N\OC)c3ccccc3)cc2)cc1 (stereo not shown) [Compound 91, 3-{4-[(4-{[(2Z)-2-(Methoxyimino)-2-phenylethyl]oxy}benzyl)oxy]phenyl}hexanoic acid]	> 100
CO/N=C(\COc1ccc(COc2ccc(C(C#N)CC(=O)O)cc2)cc1)c1ccccc1 (single isomer, unassigned; (-)) [Compound 82, (−)-Sodium 3-cyano-3-{4-[(4-{[(2E,2Z)-2-(methoxyimino)-2-phenylethyl]oxy}benzyl)oxy]phenyl}propanoate]	< 10
CO/N=C(\COc1ccc(COc2ccc(CCC(=O)O)c(F)c2)cc1OC)c1ccccc1 [Compound 41, 3-{2-Fluoro-4-[(3-methoxy-4-{[(2E,2Z)-2-(methoxyimino)-2-phenylethyl]oxy}benzyl)oxy]phenyl}propanoic acid]	10 to 100
N#CC(CC(=O)O)c1ccc(OCc2ccc(OC/C(=N\O)c3ccccc3)cc2)cc1 (stereo not shown) [Compound 109, 3-Cyano-3-{4-[(4-{[(2Z)-2-(hydroxyimino)-2-phenylethyl]oxy}benzyl)oxy]phenyl}propanoic acid]	> 100
CO/N=C(\COc1ccc(COc2ccc(/C(C#N)=C/C(=O)O)cc2)cc1)c1ccccc1 [Compound 76, (2Z)-3-Cyano-3-{4-[(4-{[(2Z)-2-(methoxyimino)-2-phenylethyl]oxy}benzyl)oxy]phenyl}prop-2-enoic acid]	10 to 100
CO/N=C(\COc1ccc(CNc2ccc(-c3onc(C)c3CCC(=O)O)cc2)cc1)c1ccc(C#N)cc1 [Compound 72, 3-(5-{4-[(4-{[(2E,2Z)-2-(4-Cyanophenyl)-2-(methoxyimino)ethyl]oxy}benzyl)amino]phenyl}-3-methyl-1,2-oxazol-4-yl)propanoic acid]	> 100
CO/N=C(\COc1ccc(COc2ccc(C(C#N)CC(=O)O)cc2)cc1)c1ccc2c(c1)CCO2 (stereo not shown) [Compound 102, 3-Cyano-3-{4-[(4-{[(2Z)-2-(2,3-dihydro-1-benzofuran-5-yl)-2-(methoxyimino)ethyl]oxy}benzyl)oxy]phenyl}propanoic acid]	10 to 100
CO/N=C(\COc1ccc(COc2ccc(C(C#N)CC(=O)O)cc2)cc1)C1=Cc2ccccc2C1 (stereo not shown) [Compound 101, 3-Cyano-3-{4-[(4-{[(2Z)-2-(1H-inden-2-yl)-2-(methoxyimino)ethyl]oxy}benzyl)oxy]phenyl}propanoic acid]	10 to 100
CO/N=C(\COc1ccc(COc2ccc(C(C#N)CC(=O)O)cc2)cc1)c1ccc(F)cc1 (stereo not shown) [Compound 54, Sodium 3-cyano-3-{4-[(4-{[(2Z)-2-(4-fluorophenyl)-2-(methoxyimino)ethyl]oxy}benzyl)oxy]phenyl}propanoate]	10 to 100
CO/N=C(/COc1ccc(COc2ccc(C(C#N)CC(=O)O)cc2)cc1)c1cccc(C)c1 (racemic) [Compound 27, 3-Cyano-3-{4-[(4-{[(2E,2Z)-2-(methoxyimino)-2-(3-methylphenyl)ethyl]oxy}benzyl)oxy]phenyl}propanoic acid]	10 to 100
CO/N=C(\COc1ccc(COc2ccc(CCC(=O)O)c(C)c2)cc1)c1ccccc1 [Compound 38]	> 100
CO/N=C(\COc1ccc(COc2ccc(/C(CC(=O)O)=N\Oc3ccccc3)cc2)cc1)c1ccccc1 [Compound 123, (3E,3Z)-3-{4-[(4-{[(2Z)-2-(Methoxyimino)-2-phenylethyl]oxy}benzyl)oxy]phenyl}-3-(phenoxyimino) propanoic acid]	> 100
CO/N=C(\COc1ccc(COc2ccc(C(C#N)CC(=O)O)cc2)cc1F)c1ccccc1 (stereo not shown) [Compound 50, Sodium 3-cyano-3-{4-[(3-fluoro-4-{[(2Z)-2-(methoxyimino)-2-phenylethyl]oxy}benzyl)oxy]phenyl}propanoate]	< 10
CO/N=C(\COc1ccc(COc2ccc(C(CC(=O)O)C3CC3)cc2)cc1)c1ccccc1 (stereo not shown) [Compound 87, 3-Cyclopropyl-3-{4-[(4-{[(2Z)-2-(methoxyimino)-2-phenylethyl]oxy}benzyl)oxy]phenyl}propanoic acid]	> 100
